Test results: article PMC9569450, “Dual Effect of Tryptamine on Prostate Cancer Cell Growth Regulation: A Pilot Study” (International Journal of Molecular Sciences, 2022)

What was measured:
[1] = mice; cited from earlier work
PANC-1 cells = test: MTT cell proliferation assay, PANC-1; assay type: cell-based; conditions: Homo sapiens, PANC-1, 48 h treatment in FBS-free medium, read-out: IC50 Value (Mean ± SD mM) PANC-1
Method: (§1) PC-3, LNCaP, RWPE-1, HepG2, A549, and PANC-1 cells were purchased from the National Collection of Authenticated Cell Cultures (Shanghai, China). […] All the above cell cultures were supplied with 10% fetal bovine serum and 1% penicillin-streptomycin. RWPE-1 cells were cultured in keratinocyte serum-free medium (K-SFM, Gibco, New York, NY, USA) supplemented with 50 mg/L bovine pituitary extract and 5 μg/L epidermal growth factor (EGF). All cell lines were grown in a humidified atmosphere of 5% CO2 at 37 °C.
(§2) Cells were seeded in 100 μL complete medium in a 96-well plate, at a density of 10,000 cells/well for LNCaP and 5000 cells/well for other cells. Cells were pre-incubated for 24 h to allow for adherence before removal of complete medium and treatment with various concentrations of compounds in fetal bovine serum (FBS)-free medium for 48 h. After treatment, 20 μL/well MTT (5 mg/mL) was added and incubated for 3–4 h at 37 °C, and then 100 μL/well DMSO was added for MTT assay. The plate was shaken on an orbital shaker for 10 min. Absorbance was measured using a microplate reader at 492 nm for the MTT assay (performed in triplicates). Cell viability was normalized to control. Half inhibitory concentration (IC50) was calculated by SPSS Statistics 17.0. […] The experiments were independently repeated two to three times.

PC-3 cells [2] = test: MTT cell proliferation assay, PC-3; assay type: cell-based, human; conditions: Homo sapiens, PC-3, 48 h treatment in FBS-free medium, read-out: IC50 Value (Mean ± SD mM) PC-3
Method: as §1, §2

A549 cells = test: Transwell migration assay, A549; assay type: cell-based; conditions: 24 h
Method: Cell migration was evaluated using 8-μm transwell filters (Costar Corning, Schiphol-Rijk, The Netherlands). Cells at a density of 5 × 10^4 were seeded to the upper chamber, and the chamber was filled with FBS-free medium. Cells were incubated overnight to allow for adherence; then, the lower chamber was replaced with 10% FBS medium as a chemo-attractant. Following a 24 h incubation, non-migrating cells on the upper surface of the insert membrane were gently removed by cotton swabs and migrated cells on the lower surface of the insert membrane were fixed by 4% paraformaldehyde and stained with 0.1% crystal violet for 20 min. Migrated cells on each membrane were photographed and counted at 100× magnification field at six random fields.

PC-3 cells [3] = test: Annexin V-FITC/PI flow cytometry apoptosis assay; assay type: cell-based, human; conditions: 24 h
Method: Cell apoptosis was assessed by Annexin V-FITC and propidium iodide (PI) staining using an Annexin V-FITC apoptosis detection kit (Thermo Fisher Scientific, Carlsbad, CA, USA) according to the manufacturer’s instructions. Briefly, cells were seeded at a density of 1.0 × 10^5 cells/well and pre-incubated for 24 h to allow for adherence before treatment with various concentrations of tryptamine in an FBS-free medium. After 24 h of tryptamine incubation, cells in each well were harvested and centrifuged at 200× g for 5 min. Cells were washed with PBS and centrifuged at 200× g for 5 min. Cells were resuspended in 100 μL binding buffer, followed by staining with 5 μL Annexin V-FITC and 5 μL PI, and incubation on ice in the dark for 15 min after addition of each staining reagent. Subsequently, a 300 μL binding buffer was added to the sample and apoptotic cells were detected by a flow cytometer (NovoCyte; ACEA Biosciences Inc., San Diego, CA, USA).

[4] = tested on: cleaved caspase-3 in PC-3 cells; test: Cleaved caspase-3 expression by immunofluorescent staining and Western blot; assay type: cell-based, human; conditions: PC-3, 0.3 mM
Method: After treatment with various doses of tryptamine, PC-3 cells were lysed with RIPA lysis buffer (Beyotime, Shanghai, China) containing 1 mM PMSF, and the total protein concentration was determined by BCA Protein Assay Kit (Solarbio, Beijing, China). Samples were electrophoresed on a 10% sodium dodecylsulfate (SDS) polyacrylamide gel and electrotransferred onto polyvinylidene difluoride (PVDF) membrane (Beyotime, China). After blocking with 5% BSA for 1 h, the membrane was incubated with the primary antibodies rabbit anti-cleaved caspase-3 (1:1000, ab32042, Abcam) and anti-β-actin (1:1000, 4967S, Cell Signaling Technology, Boston, MA, USA) at 4 °C overnight, followed by incubation with horseradish peroxidase (HRP)-conjugated goat anti-rabbit secondary antibody (1:2000, 7074S, Cell Signaling Technology) for 1 h at 37 °C. After washing with TBST, the bands were visualized by the enhanced chemiluminescence kit (Thermo Fisher Scientific, Carlsbad, CA, USA) and Odyssey® imaging system (LI-COR, Lincoln, NE, USA) according to the manufacturers’ instructions.
PC-3 cells (5 × 10^4 cells/well) were seeded in a 24-well chamber with a coverslip and incubated overnight. […] Fluorescence images were acquired with a laser scanning confocal microscope (LSCM, Leica, TCS SP8 MP, Heidelberg, Germany).

[5] = tested on: human colon cancer cell line HT29; conditions: HT29 as in vitro model of intestinal epithelium; cited from earlier work

Compound: NCCc1c[nH]c2ccccc12 [Tryptamine]
- median lethal dose (LD50) [1]: ~ 200 mg/kg
- IC50 (PANC-1 cells): 0.38 ± 0.01 mM
- IC50 (PC-3 cells [2]): 0.24 ± 0.01 mM
- migrated cells compared with the control (A549 cells; A549, 0.075 mM): no significant difference
- percentage of migrated cells (A549 cells; A549, 0.15 mM): 80%
- percentage of migrated cells (A549 cells; A549, 0.3 mM): 63%
- apoptotic cell populations (early and late apoptosis) (PC-3 cells [3]; PC-3, 0.2 mM): 12.1%
- apoptotic cell populations (early and late apoptosis) (PC-3 cells [3]; PC-3, 0.3 mM): 21.4%
- expression of cleaved caspase-3 [4]: increased expression of cleaved caspase-3
- IC50 [5]: 670 ± 90 µM
